Laboratory results reported in PMC2819846 (Mutation research, 2008).
Values joined by “and” are separate entries in the source; they are usually repeats but may differ in a detail not shown here. Equal values may be shown once. Read-outs that look alike come from different tables or passages of the source.

Legend:
Salmonella TA104 = experiment: Salmonella plate-incorporation mutagenicity assay, strain TA104, with S9 mix; assay type: cell-based
strain TA100 = assay type: cell-based, Salmonella; conditions: TA100 liquid-suspension; for Rev/10^6 survivors: DMSO 0.8; for Percent survival: DMSO 100
[1] = test system: DNA from Salmonella TA100; experiment: Abasic sites by aldehydic-site assay in DNA of treated TA100; assay type: cell-based; conditions: DMSO 5.9 ± 0.33
Salmonella TA98 = experiment: Salmonella plate-incorporation mutagenicity assay, strain TA98, with S9 mix; assay type: cell-based
Salmonella TA100 = experiment: Salmonella plate-incorporation mutagenicity assay, strain TA100; assay type: cell-based
[2] = test system: DNA from Salmonella TA100; experiment: Stable DNA adducts by 32P-postlabeling in DNA of treated TA100; assay type: cell-based; conditions: DMSO 0.024 ± 0.000
Salmonella = conditions: cited from earlier work

O=S1(=O)C=Cc2c1ccc1ccc3ccccc3c21 [P[3,4-b]T sulfone, Phenanthro[3,4-b]thiophene sulfone]
Rev/plate (Salmonella TA104; TA104 +S9, Test 2, 2.5 µg/plate, zero-dose 276/260/270): 1068/1015 | Rev/plate (Salmonella TA104; TA104 +S9, Test 2, 5 µg/plate, zero-dose 276/260/270): 1603/1565 | Rev/plate (Salmonella TA104; TA104 +S9, Test 2, 10 µg/plate, zero-dose 276/260/270): 1488/1583 | Rev/plate (Salmonella TA104; TA104 +S9, Test 2, 20 µg/plate, zero-dose 276/260/270): 706/778 | Rev/plate (Salmonella TA104; TA104 +S9, Test 3, 2.5 µg/plate, zero-dose 402/395/336): 1027/982 | Rev/plate (Salmonella TA104; TA104 +S9, Test 3, 5 µg/plate, zero-dose 402/395/336): 1650/1580 | Rev/plate (Salmonella TA104; TA104 +S9, Test 3, 10 µg/plate, zero-dose 402/395/336): 1652/1652 | Rev/plate (Salmonella TA104; TA104 +S9, Test 3, 20 µg/plate, zero-dose 402/395/336): 758/919 | Mutagenic potency, Revertants/µg ± S.E., TA104 (Salmonella TA104; plate-incorporation, +S9): 262 ± 135 rev/µg | Mutagenicity call TA104 (Salmonella TA104; plate-incorporation, +S9): (+) (Called mutagenic (+) based on showing reproducible, dose-related increases in rev/plate that reached or exceeded 2-fold relative to zero-dose controls) | Fold increase in mutant frequency relative to DMSO-treated cells (strain TA100; 10 µg/ml): 17.6 fold | Rev/10^6 survivors (strain TA100; 10 µg/ml): 14.1 Rev/10^6 survivors | Percent survival (strain TA100; 10 µg/ml): 56% | Fold increase in mutant frequency relative to DMSO-treated cells (strain TA100; 20 µg/ml): 62.1 fold | Rev/10^6 survivors (strain TA100; 20 µg/ml): 49.1 Rev/10^6 survivors | Percent survival (strain TA100; 20 µg/ml): 37% | Abasic sites/10^5 nucleotides ± S.E ([1]; TA100, 10 µg/ml): 18.4 ± 0.64 sites/10^5 nucleotides | Abasic sites/10^5 nucleotides ± S.E ([1]; TA100, 20 µg/ml): 15.1 ± 0.43 sites/10^5 nucleotides | Rev/plate (Salmonella TA98; TA98 +S9, Test 1, 2 µg/plate, zero-dose 33/40/39): 328 rev/plate | Rev/plate (Salmonella TA98; TA98 +S9, Test 1, 5 µg/plate, zero-dose 33/40/39): 982 rev/plate | Rev/plate (Salmonella TA98; TA98 +S9, Test 1, 10 µg/plate, zero-dose 33/40/39): 1373 rev/plate | Rev/plate (Salmonella TA98; TA98 +S9, Test 1, 20 µg/plate, zero-dose 33/40/39): 1324 rev/plate | Rev/plate (Salmonella TA98; TA98 +S9, Test 1, 40 µg/plate, zero-dose 33/40/39): 1124 rev/plate | Rev/plate (Salmonella TA98; TA98 +S9, Test 1, 80 µg/plate, zero-dose 33/40/39): 1268 rev/plate | Rev/plate (Salmonella TA98; TA98 +S9, Test 2, 0.5 µg/plate, zero-dose 43/41/30): 41/57 | Rev/plate (Salmonella TA98; TA98 +S9, Test 2, 1 µg/plate, zero-dose 43/41/30): 63/67 | Rev/plate (Salmonella TA98; TA98 +S9, Test 2, 2.5 µg/plate, zero-dose 43/41/30): 263/237 | Rev/plate (Salmonella TA98; TA98 +S9, Test 2, 5 µg/plate, zero-dose 43/41/30): 765/708 | Rev/plate (Salmonella TA98; TA98 +S9, Test 3, 0.5 µg/plate, zero-dose 49/50/50): 56/52 | Rev/plate (Salmonella TA98; TA98 +S9, Test 3, 1 µg/plate, zero-dose 49/50/50): 124/86 | Rev/plate (Salmonella TA98; TA98 +S9, Test 3, 2.5 µg/plate, zero-dose 49/50/50): 293/366 | Rev/plate (Salmonella TA98; TA98 +S9, Test 3, 5 µg/plate, zero-dose 49/50/50): 1078/922 | Mutagenic potency, Revertants/µg ± S.E., TA98 (Salmonella TA98; plate-incorporation, +S9): 143 rev/µg and 143 ± 19 rev/µg | Mutagenicity call TA98 (Salmonella TA98; plate-incorporation, +S9): (+) (Called mutagenic (+) based on showing reproducible, dose-related increases in rev/plate that reached or exceeded 2-fold relative to zero-dose controls) | Rev/plate (Salmonella TA100; TA100 +S9, Test 3, 0.1 µg/plate, zero-dose 127/118/125): 239/190 | Rev/plate (Salmonella TA100; TA100 +S9, Test 3, 0.25 µg/plate, zero-dose 127/118/125): 368/365 | Rev/plate (Salmonella TA100; TA100 +S9, Test 3, 0.5 µg/plate, zero-dose 127/118/125): 681/795 | Rev/plate (Salmonella TA100; TA100 +S9, Test 3, 1 µg/plate, zero-dose 127/118/125): 1332/1283 | Rev/plate (Salmonella TA100; TA100 +S9, Test 3, 2.5 µg/plate, zero-dose 127/118/125): 2801/2710 | Rev/plate (Salmonella TA100; TA100 +S9, Test 3, 5 µg/plate, zero-dose 127/118/125): 3090/3170 | Rev/plate (Salmonella TA100; TA100 +S9, Test 4, 0.1 µg/plate, zero-dose 112/140/115): 197/195 | Rev/plate (Salmonella TA100; TA100 +S9, Test 4, 0.25 µg/plate, zero-dose 112/140/115): 284/297 | Rev/plate (Salmonella TA100; TA100 +S9, Test 4, 0.5 µg/plate, zero-dose 112/140/115): 453/514 | Rev/plate (Salmonella TA100; TA100 +S9, Test 4, 1 µg/plate, zero-dose 112/140/115): 380/383 | Rev/plate (Salmonella TA100; TA100 +S9, Test 4, 2.5 µg/plate, zero-dose 112/140/115): 1885 rev/plate | Rev/plate (Salmonella TA100; TA100 +S9, Test 5, 0.1 µg/plate, zero-dose 102/119/99): 194/197 | Rev/plate (Salmonella TA100; TA100 +S9, Test 5, 0.25 µg/plate, zero-dose 102/119/99): 255/245 | Rev/plate (Salmonella TA100; TA100 +S9, Test 5, 0.5 µg/plate, zero-dose 102/119/99): 504/448 | Rev/plate (Salmonella TA100; TA100 +S9, Test 5, 1 µg/plate, zero-dose 102/119/99): 1037/993 | Rev/plate (Salmonella TA100; TA100 +S9, Test 5, 2.5 µg/plate, zero-dose 102/119/99): 2935/2875 | Mutagenic potency, Revertants/µg ± S.E., TA100 (Salmonella TA100; plate-incorporation, +S9): 914 ± 113 rev/µg | Mutagenicity call TA100 (Salmonella TA100; plate-incorporation, +S9): (+) (Called mutagenic (+) based on showing reproducible, dose-related increases in rev/plate that reached or exceeded 2-fold relative to zero-dose controls) | Mutagenicity without S9 mix (direct-acting activity) (Salmonella TA100; without S9 mix): required metabolic activation to be mutagenic | Stable adducts/10^8 nucleotides ± S.E ([2]; TA100, 10 µg/ml): Not detected | Stable adducts/10^8 nucleotides ± S.E ([2]; TA100, 20 µg/ml): Not detected

c1ccc2c(c1)ccc1cc3c(cc12)sc1ccccc13 [BPT, benzo[b]phenanthro[2,3-d]thiophene]
Mutagenicity in Salmonella (Salmonella): mutagenic
